Measured values published in patent US20190233884A1 (University of Southern California, priority 2016, published 2019).

Tested on: patients with refractory metastatic colorectal cancer (mCRC)
Assay: PFS, OS and disease control in the training (evaluation) cohort of refractory mCRC patients receiving TAS-102 (n=52, Japan), by baseline characteristics, SNP genotype and toxicity
Assay type: in vivo, human
Settings: for Overall Survival Median, months / Progression-Free Survival Median, months / Overall Survival HR / Progression-Free Survival HR / HR for OS / HR for PFS: evaluation cohort
Protocol: All patients underwent the treatment in salvage-line setting. […]
(§1) Genomic DNA was extracted from peripheral whole blood in patients of all cohorts using the QIAmp Kit (Qiagen, Valencia, Calif., USA) according to the manufacturer's protocol (www.qiagen.com). The candidate SNPs were genotyped using PCR-based direct DNA sequence analysis by ABI 3100A Capillary Genetic Analyzer and Sequencing Scanner v1.0 (Applied Biosystems). Amplification of extracted DNA was carried out using both forward and reverse primers for each gene polymorphism as shown in Table 1. […] The investigators analyzing SNPs were blinded to the clinical data of the study patients.
The primary endpoint in this study was progression-free survival (PFS), and the secondary endpoints were overall survival (OS) and disease control rate (DCR). PFS was calculated from the date of starting treatment to the first observation of disease progression or death from any cause. If a patient had no disease progression or death, PFS was censored at the date of last follow up. OS was calculated from the date of starting treatment until the date of death from any cause or the date of the last follow-up, at which point OS was censored. The disease control rate (DCR) was defined as the proportion of patients who achieved a stable disease (SD) or […] according to RECISTv1.1. Chi-square test was used to examine the difference in baseline patient characteristics among the three cohorts. Allelic distribution of all SNPs by ethnicity for deviation from Hardy-Weinberg equilibrium and the allelic frequencies of SNPs were tested using the Chi-square tests with one degree of freedom. The associations between candidate SNPs and disease control, and toxicities were examined using contingency tables and Fisher's exact test. The associations of SNPs with PFS and OS were analysed using Kaplan-Meier curves and the log-rank test. Because the true mode of inheritance of candidate SNPs was not established yet, a codominant or dominant genetic model if appropriate was considered.
All patients underwent the treatment in salvage-line setting. […] In all patients, adverse events were graded according to the Common Terminology Criteria for Adverse Events, version 4.0. […]
as §1, with “tested” for “genotyped”, “Biosystems).” for “Biosystems). Amplification of extracted DNA was carried out using both forward and reverse primers for each gene polymorphism as shown in Table 1.”, “data.” for “data of the study patients.”
The primary endpoint in this study was progression-free survival (PFS), and the secondary endpoints were overall survival (OS) and disease control rate (DCR).

[1] = Performance status ECOG 1 vs ECOG 0, univariate
[2] = Peritoneal No vs Yes, univariate
[3] = Pre-chemo numbers ≥4 vs <4, univariate
[4] = Primary tumor resection No vs Yes, univariate
[5] = Prior EGFR No vs Yes, univariate
[6] = Prior REGORA No vs Yes, univariate
[7] = Prior bev No vs Yes, univariate
[8] = Tumor site Left vs Right, univariate
[9] = XRCC3 rs861539 G/A vs G/G, univariate
[10] = p21 rs1059234 Any C vs T/T, multivariable
[11] = p21 rs1059234 Any C vs T/T, univariate
[12] = p21 rs1059234 C/C vs T/T, multivariable
[13] = p21 rs1059234 C/C vs T/T, univariate
[14] = p21 rs1059234 T/C vs T/T, multivariable
[15] = p21 rs1059234 T/C vs T/T, univariate
[16] = p21 rs1801270 A/C vs A/A, multivariable
[17] = p21 rs1801270 A/C vs A/A, univariate

Trifluridine/tipiracil [TAS-102]
Overall Survival Median, months (Number of metastases ≤2): 8.3 months
Progression-Free Survival Median, months (Number of metastases ≤2): 2.7 months
Overall Survival Median, months (Performance status ECOG 0): 8.7 months
Progression-Free Survival Median, months (Performance status ECOG 0): 2.9 months
Overall Survival Median, months (Performance status ECOG 1): 7.2 months
Progression-Free Survival Median, months (Performance status ECOG 1): 2.7 months
Overall Survival HR [1]: 1.42
Progression-Free Survival HR [1]: 1.06
Overall Survival Median, months (Peritoneal No): 8.3 months
Progression-Free Survival Median, months (Peritoneal No): 2.3 months
Overall Survival HR [2]: 0.84
Progression-Free Survival HR [2]: 1.48
Overall Survival Median, months (Peritoneal Yes): 6.3 months
Progression-Free Survival Median, months (Peritoneal Yes): 3.1 months
Overall Survival Median, months (Pre-chemo numbers <4): 8.7 months
Progression-Free Survival Median, months (Pre-chemo numbers <4): 3.0 months
Overall Survival Median, months (Pre-chemo numbers ≥4): 6.3 months
Progression-Free Survival Median, months (Pre-chemo numbers ≥4): 2.1 months
Overall Survival HR [3]: 2.48
Progression-Free Survival HR [3]: 1.73
Overall Survival Median, months (Primary tumor resection No): 8.1+ months
Progression-Free Survival Median, months (Primary tumor resection No): 2.1 months
Overall Survival HR [4]: 1.72
Progression-Free Survival HR [4]: 1.39
Overall Survival Median, months (Primary tumor resection Yes): 8.1 months
Progression-Free Survival Median, months (Primary tumor resection Yes): 3.0 months
Overall Survival Median, months (Prior EGFR No): 15.6+ months
Progression-Free Survival Median, months (Prior EGFR No): 3.7 months
Overall Survival HR [5]: 0.35
Progression-Free Survival HR [5]: 0.49
Overall Survival Median, months (Prior EGFR Yes): 6.3 months
Progression-Free Survival Median, months (Prior EGFR Yes): 2.1 months
Overall Survival Median, months (Prior REGORA No): 14.8+ months
Progression-Free Survival Median, months (Prior REGORA No): 3.7 months
Overall Survival HR [6]: 0.50
Progression-Free Survival HR [6]: 0.65
Overall Survival Median, months (Prior REGORA Yes): 8.1 months
Progression-Free Survival Median, months (Prior REGORA Yes): 2.1 months
Overall Survival Median, months (Prior bev No): 4.1 months
Progression-Free Survival Median, months (Prior bev No): 2.5 months
Overall Survival HR [7]: 3.43
Progression-Free Survival HR [7]: 1.86
Overall Survival Median, months (Prior bev Yes): 8.3 months
Progression-Free Survival Median, months (Prior bev Yes): 2.9 months
Overall Survival Median, months (Sex Female): 8.3 months
Progression-Free Survival Median, months (Sex Female): 3.4 months
Overall Survival HR (Sex Female vs Male, univariate): 0.47
Progression-Free Survival HR (Sex Female vs Male, univariate): 0.60
Overall Survival Median, months (Sex Male): 4.9 months
Progression-Free Survival Median, months (Sex Male): 2.1 months
Overall Survival Median, months (Tumor site Left): 8.1 months
Progression-Free Survival Median, months (Tumor site Left): 2.9 months
Overall Survival HR [8]: 0.97
Progression-Free Survival HR [8]: 1.30
Overall Survival Median, months (Tumor site Right): 8.7 months
Progression-Free Survival Median, months (Tumor site Right): 3.3 months
HR for OS (XRCC3 rs861539, multivariable): 0.31
HR for PFS (XRCC3 rs861539, multivariable): 0.52
HR for OS [9]: 0.25
HR for PFS [9]: 0.44
OS median, months (95% CI) (p21 rs1059234 Any C): 12.4 (5.4, 15.6+) months
PFS median, months (95% CI) (p21 rs1059234 Any C): 2.7 (2.1, 3.5) months
OS HR (95% CI)‡ [10]: 0.50 (0.20, 1.25)
PFS HR (95% CI) ‡ [10]: 0.74 (0.37, 1.49)
OS HR (95% CI)† [11]: 0.64 (0.27, 1.56)
PFS HR (95% CI) † [11]: 0.88 (0.44, 1.74)
OS median, months (95% CI) (p21 rs1059234 C/C): 6.3 (2.7, 10.7+) months
PFS median, months (95% CI) (p21 rs1059234 C/C): 2.9 (1.6, 4.9) months
OS HR (95% CI)‡ [12]: 0.67 (0.21, 2.12)
PFS HR (95% CI) ‡ [12]: 0.73 (0.30, 1.74)
OS HR (95% CI)† [13]: 0.76 (0.25, 2.35)
PFS HR (95% CI) † [13]: 0.95 (0.42, 2.16)
OS median, months (95% CI) (p21 rs1059234 T/C): 12.4 (5.3, 15.6+) months
PFS median, months (95% CI) (p21 rs1059234 T/C): 2.7 (2.1, 3.5) months
OS HR (95% CI)‡ [14]: 0.42 (0.15, 1.19)
PFS HR (95% CI) ‡ [14]: 0.75 (0.35, 1.60)
OS HR (95% CI)† [15]: 0.59 (0.22, 1.57)
PFS HR (95% CI) † [15]: 0.84 (0.40, 1.76)
OS median, months (95% CI) (p21 rs1059234 T/T): 7.2 (3.3, 8.7) months
PFS median, months (95% CI) (p21 rs1059234 T/T): 3.3 (1.6, 4.1) months
OS median, months (95% CI) (p21 rs1801270 A/A): 7.2 (3.3, 8.7) months
PFS median, months (95% CI) (p21 rs1801270 A/A): 3.3 (1.6, 4.1) months
OS median, months (95% CI) (p21 rs1801270 A/C): 12.4 (5.3, 15.6+) months
PFS median, months (95% CI) (p21 rs1801270 A/C): 2.3 (1.8, 3.5) months
OS HR (95% CI)‡ [16]: 0.39 (0.13, 1.11)
PFS HR (95% CI) ‡ [16]: 0.72 (0.34, 1.55)
OS HR (95% CI)† [17]: 0.53 (0.19, 1.47)
PFS HR (95% CI) † [17]: 0.82 (0.39, 1.74)
OS median, months (95% CI) (p21 rs1801270 Any C): 12.4 (5.4, 15.6+) months
PFS median, months (95% CI) (p21 rs1801270 Any C): 2.7 (2.1, 3.5) months
OS HR (95% CI)‡ (p21 rs1801270 Any C vs A/A, multivariable): 0.50 (0.20, 1.25)
